In ChEMBL document CHEMBL1149126, “3-phenyl-6-(2-pyridyl)methyloxy-1,2,4-triazolo[3,4-a]phthalazines and analogues: high-affinity gamma-aminobutyric acid-A benzodiazepine receptor ligands with alpha 2, alpha 3, and alpha 5-subtype binding selectivity over alpha 1” (J Med Chem, 2004):

How the values were obtained:
[1] = biological target: T1, GABA-A receptor; alpha-3/beta-3/gamma-2 (Homo sapiens, UniProt P18507+P28472+P34903); test: Binding affinity for human GABA-A receptor alpha-3-beta-3-gamma-2 subunits in L(tk-) cells; format: cell-based
T1 sequence (P18507 whole entry): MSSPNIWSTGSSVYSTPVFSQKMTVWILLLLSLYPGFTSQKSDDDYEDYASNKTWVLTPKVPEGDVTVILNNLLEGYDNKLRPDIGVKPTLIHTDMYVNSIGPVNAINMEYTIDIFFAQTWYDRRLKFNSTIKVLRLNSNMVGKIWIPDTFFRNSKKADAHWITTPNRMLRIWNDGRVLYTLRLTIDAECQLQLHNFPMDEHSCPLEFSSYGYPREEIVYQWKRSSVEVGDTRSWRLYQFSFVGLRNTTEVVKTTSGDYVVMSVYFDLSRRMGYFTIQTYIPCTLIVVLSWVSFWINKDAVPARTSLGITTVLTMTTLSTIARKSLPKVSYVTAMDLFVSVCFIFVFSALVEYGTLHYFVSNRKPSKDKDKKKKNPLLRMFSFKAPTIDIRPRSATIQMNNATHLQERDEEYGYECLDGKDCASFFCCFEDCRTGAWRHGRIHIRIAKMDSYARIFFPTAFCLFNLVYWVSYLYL
T1 sequence (P28472 whole entry): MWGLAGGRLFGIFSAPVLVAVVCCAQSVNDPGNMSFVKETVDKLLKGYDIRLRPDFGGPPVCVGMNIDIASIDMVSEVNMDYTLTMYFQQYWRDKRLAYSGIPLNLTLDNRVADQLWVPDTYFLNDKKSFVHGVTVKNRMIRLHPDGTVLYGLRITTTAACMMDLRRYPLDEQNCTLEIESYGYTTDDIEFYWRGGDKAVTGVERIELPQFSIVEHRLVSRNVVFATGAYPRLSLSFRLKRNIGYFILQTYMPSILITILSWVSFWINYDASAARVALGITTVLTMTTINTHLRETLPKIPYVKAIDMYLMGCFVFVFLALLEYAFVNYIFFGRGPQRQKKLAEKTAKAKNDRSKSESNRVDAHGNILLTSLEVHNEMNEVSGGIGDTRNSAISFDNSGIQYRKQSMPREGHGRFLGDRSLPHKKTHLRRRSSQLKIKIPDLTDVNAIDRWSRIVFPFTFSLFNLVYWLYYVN
T1 sequence (P34903 whole entry): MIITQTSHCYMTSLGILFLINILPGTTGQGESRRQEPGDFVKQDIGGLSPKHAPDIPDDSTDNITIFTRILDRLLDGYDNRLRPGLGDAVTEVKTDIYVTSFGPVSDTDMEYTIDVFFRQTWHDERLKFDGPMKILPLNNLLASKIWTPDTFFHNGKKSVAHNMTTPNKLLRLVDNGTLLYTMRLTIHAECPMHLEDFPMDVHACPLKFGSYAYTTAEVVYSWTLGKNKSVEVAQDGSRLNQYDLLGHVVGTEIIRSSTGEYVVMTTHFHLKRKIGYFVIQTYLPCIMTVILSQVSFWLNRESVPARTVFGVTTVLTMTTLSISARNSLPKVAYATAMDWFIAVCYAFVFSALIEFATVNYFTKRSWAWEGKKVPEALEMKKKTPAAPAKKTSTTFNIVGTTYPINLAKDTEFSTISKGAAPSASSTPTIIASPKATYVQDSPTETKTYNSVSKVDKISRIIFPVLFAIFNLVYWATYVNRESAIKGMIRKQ

[2] = biological target: T2, GABA-A receptor; alpha-1/beta-3/gamma-2 (Homo sapiens, UniProt P14867+P18507+P28472); test: Binding affinity for human GABA-A receptor alpha-1-beta-3-gamma-2 subunits in L(tk-) cells
T2 sequence (P14867 whole entry): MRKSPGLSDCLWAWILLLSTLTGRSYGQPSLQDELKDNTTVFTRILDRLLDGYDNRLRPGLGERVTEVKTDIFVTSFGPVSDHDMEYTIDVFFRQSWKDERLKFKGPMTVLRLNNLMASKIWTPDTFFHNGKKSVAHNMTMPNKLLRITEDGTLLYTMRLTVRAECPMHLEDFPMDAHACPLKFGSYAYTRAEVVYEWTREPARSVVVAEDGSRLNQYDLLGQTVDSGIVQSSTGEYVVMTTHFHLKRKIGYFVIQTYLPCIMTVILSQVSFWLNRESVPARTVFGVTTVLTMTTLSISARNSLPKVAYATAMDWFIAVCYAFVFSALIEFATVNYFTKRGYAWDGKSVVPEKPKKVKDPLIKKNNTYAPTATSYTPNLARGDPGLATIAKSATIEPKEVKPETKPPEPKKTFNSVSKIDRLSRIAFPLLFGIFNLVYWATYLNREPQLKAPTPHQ
T2 sequence (P18507 whole entry): T1 sequence (P18507 whole entry)
T2 sequence (P28472 whole entry): T1 sequence (P28472 whole entry)

[3] = biological target: T3, GABA-A receptor; alpha-2/beta-3/gamma-2 (Homo sapiens, UniProt P18507+P28472+P47869); test: Binding affinity for human GABA-A receptor alpha-2-beta-3-gamma-2 subunits in L(tk-) cells; format: cell-based
T3 sequence (P18507 whole entry): T1 sequence (P18507 whole entry)
T3 sequence (P28472 whole entry): T1 sequence (P28472 whole entry)
T3 sequence (P47869 whole entry): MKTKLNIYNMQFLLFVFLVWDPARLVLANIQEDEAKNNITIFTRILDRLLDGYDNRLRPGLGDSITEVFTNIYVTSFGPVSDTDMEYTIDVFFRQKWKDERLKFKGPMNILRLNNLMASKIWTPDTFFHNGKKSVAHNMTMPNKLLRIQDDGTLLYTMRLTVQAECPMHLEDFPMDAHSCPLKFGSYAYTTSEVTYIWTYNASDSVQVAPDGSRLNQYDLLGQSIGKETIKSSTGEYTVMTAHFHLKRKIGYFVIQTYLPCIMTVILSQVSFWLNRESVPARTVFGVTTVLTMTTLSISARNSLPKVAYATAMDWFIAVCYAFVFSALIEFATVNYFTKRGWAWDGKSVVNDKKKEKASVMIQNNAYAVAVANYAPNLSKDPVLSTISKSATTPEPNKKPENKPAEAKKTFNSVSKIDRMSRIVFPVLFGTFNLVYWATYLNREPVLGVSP

[4] = biological target: T4, GABA-A receptor; alpha-5/beta-3/gamma-2 (Homo sapiens, UniProt P18507+P28472+P31644); test: Binding affinity for human GABA-A receptor alpha-5-beta-3-gamma-2 subunits in L(tk-) cells; format: cell-based
T4 sequence (P18507 whole entry): T1 sequence (P18507 whole entry)
T4 sequence (P28472 whole entry): T1 sequence (P28472 whole entry)
T4 sequence (P31644 whole entry): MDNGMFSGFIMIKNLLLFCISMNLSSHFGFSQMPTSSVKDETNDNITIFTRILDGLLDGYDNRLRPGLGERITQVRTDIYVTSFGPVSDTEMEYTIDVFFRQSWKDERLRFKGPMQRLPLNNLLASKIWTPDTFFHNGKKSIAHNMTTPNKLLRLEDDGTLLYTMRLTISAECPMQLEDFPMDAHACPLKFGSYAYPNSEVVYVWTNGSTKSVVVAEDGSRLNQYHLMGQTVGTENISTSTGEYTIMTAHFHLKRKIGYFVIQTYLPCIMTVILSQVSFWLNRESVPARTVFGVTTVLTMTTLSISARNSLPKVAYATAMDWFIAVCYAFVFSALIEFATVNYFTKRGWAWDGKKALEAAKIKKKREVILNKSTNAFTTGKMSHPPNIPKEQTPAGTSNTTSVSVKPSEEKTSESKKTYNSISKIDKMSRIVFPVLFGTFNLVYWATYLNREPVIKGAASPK

Structure (SMILES) | Ki [1] [nM] | Ki [2] [nM] | Ki [3] [nM] | Ki [4] [nM]
CCCc1nnc2c3ccccc3c(OCc3ccccn3)nn12 | 52 | 160 | 120 | 19
c1ccc(-c2nnc3c4ccccc4c(OCc4ccncc4)nn23)cc1 | 7.7 | 24 | 11 | 6.1
Cn1ccnc1COc1nn2c(-c3ccccc3)nnc2c2ccccc12 | 0.22 | 0.51 | 0.7 | 0.17
c1ccc(-c2nnc3c4ccccc4c(OCc4ccoc4)nn23)cc1 | 21 | 26 | 38 | 13
c1ccc(-c2nnc3c4ccccc4c(OCc4ccco4)nn23)cc1 | 180 | 250 | 270 | 74
N#Cc1cccc(COc2nn3c(-c4ccccc4)nnc3c3ccccc23)c1 | 170 | 730 | 400 | 130
Clc1ccc(COc2nn3c(-c4ccccc4)nnc3c3ccccc23)cc1 | 250 | 480 | 380 | 170
c1ccc(CSc2nn3c(-c4ccccc4)nnc3c3ccccc23)cc1 | > 1000 | > 1000 | > 1000 | > 1000
COc1cccc(COc2nn3c(-c4ccccc4)nnc3c3ccccc23)c1 | 66 | 800 | 170 | 150
c1ccc(-c2nnc3c4ccccc4c(OCc4cnccn4)nn23)cc1 | 0.71 | 2 | 1.6 | 0.36
Cc1cccnc1COc1nn2c(-c3ccccc3)nnc2c2ccccc12 | 1 | 2.4 | 2.3 | 0.88
CN(C)Cc1nnc2c3ccccc3c(OCc3ccccn3)nn12 | 840 | 140 | 620 | 160
c1ccc(COc2nn3c(C4CCC4)nnc3c3ccccc23)nc1 | 23 | 56 | 24 | 5.1
Clc1ccccc1COc1nn2c(-c3ccccc3)nnc2c2ccccc12 | 260 | > 1000 | 580 | 560
COc1nn2c(-c3ccccc3)nnc2c2ccccc12 | 120 | 140 | 160 | 39
CCc1nnc2c3ccccc3c(OCc3ccccn3)nn12 | 53 | 250 | 130 | 16
c1ccc(-c2nnc3c4ccccc4c(OCc4ccsc4)nn23)cc1 | 240 | 710 | 510 | 250
O=C1c2ccccc2C(=O)N1CCn1c(=O)c2ccccc2c(=O)n1Cc1ccccc1 | 1400 | – | 1800 | 4800
